The record followed here is publication PMC5888987 (Carcinogenesis, 2018).

SMILES strings stand for the structures.

Broadly, the IC50 is the concentration that inhibits the measured activity by half.

Common to all, as to assay type: biochemical
One experiment concerns the target DNMT1 (Homo sapiens, UniProt P26358). The experiment can be described thus: AlphaScreen methyltransferase assay with […] SAM. Background: In Alpha technology, singlet oxygen from a donor bead excites a nearby acceptor bead.
For a further experiment, the target named is mTOR (Homo sapiens, UniProt P42345). Put plainly: FRET-based Z-LYTE kinase assay.
For a further experiment, the target named is DNMT3B (Homo sapiens, UniProt Q9UBC3). Put plainly: AlphaScreen methyltransferase assay with […] SAM.
Another experiment addresses DNMT3A (Homo sapiens, UniProt Q9Y6K1). The experiment can be described thus: AlphaScreen methyltransferase assay with […] SAM.

Chain of DNMT3A (Q9Y6K1 whole entry, looked up): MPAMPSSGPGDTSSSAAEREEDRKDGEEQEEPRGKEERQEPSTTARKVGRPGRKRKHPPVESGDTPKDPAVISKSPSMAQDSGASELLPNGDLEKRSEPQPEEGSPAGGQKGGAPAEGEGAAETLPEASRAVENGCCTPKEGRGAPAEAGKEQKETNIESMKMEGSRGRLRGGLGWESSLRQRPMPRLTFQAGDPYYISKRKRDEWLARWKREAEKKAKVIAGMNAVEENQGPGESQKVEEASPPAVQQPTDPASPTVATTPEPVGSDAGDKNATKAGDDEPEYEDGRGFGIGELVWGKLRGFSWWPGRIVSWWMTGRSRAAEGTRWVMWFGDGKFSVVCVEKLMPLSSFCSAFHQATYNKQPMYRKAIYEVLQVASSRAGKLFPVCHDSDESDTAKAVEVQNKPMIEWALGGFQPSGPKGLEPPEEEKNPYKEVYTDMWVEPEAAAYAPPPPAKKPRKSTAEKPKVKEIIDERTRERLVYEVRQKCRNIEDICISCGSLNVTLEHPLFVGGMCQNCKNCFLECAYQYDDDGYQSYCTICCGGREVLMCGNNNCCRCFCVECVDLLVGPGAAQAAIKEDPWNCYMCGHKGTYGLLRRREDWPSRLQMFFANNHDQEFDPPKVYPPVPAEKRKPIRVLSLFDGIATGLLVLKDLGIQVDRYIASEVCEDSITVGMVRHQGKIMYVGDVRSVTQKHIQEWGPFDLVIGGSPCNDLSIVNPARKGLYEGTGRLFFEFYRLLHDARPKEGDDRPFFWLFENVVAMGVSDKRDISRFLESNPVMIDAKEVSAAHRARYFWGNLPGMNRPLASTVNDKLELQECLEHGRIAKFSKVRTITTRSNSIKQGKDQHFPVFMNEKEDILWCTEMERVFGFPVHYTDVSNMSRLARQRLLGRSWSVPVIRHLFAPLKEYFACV
Chain of DNMT1 (P26358 whole entry): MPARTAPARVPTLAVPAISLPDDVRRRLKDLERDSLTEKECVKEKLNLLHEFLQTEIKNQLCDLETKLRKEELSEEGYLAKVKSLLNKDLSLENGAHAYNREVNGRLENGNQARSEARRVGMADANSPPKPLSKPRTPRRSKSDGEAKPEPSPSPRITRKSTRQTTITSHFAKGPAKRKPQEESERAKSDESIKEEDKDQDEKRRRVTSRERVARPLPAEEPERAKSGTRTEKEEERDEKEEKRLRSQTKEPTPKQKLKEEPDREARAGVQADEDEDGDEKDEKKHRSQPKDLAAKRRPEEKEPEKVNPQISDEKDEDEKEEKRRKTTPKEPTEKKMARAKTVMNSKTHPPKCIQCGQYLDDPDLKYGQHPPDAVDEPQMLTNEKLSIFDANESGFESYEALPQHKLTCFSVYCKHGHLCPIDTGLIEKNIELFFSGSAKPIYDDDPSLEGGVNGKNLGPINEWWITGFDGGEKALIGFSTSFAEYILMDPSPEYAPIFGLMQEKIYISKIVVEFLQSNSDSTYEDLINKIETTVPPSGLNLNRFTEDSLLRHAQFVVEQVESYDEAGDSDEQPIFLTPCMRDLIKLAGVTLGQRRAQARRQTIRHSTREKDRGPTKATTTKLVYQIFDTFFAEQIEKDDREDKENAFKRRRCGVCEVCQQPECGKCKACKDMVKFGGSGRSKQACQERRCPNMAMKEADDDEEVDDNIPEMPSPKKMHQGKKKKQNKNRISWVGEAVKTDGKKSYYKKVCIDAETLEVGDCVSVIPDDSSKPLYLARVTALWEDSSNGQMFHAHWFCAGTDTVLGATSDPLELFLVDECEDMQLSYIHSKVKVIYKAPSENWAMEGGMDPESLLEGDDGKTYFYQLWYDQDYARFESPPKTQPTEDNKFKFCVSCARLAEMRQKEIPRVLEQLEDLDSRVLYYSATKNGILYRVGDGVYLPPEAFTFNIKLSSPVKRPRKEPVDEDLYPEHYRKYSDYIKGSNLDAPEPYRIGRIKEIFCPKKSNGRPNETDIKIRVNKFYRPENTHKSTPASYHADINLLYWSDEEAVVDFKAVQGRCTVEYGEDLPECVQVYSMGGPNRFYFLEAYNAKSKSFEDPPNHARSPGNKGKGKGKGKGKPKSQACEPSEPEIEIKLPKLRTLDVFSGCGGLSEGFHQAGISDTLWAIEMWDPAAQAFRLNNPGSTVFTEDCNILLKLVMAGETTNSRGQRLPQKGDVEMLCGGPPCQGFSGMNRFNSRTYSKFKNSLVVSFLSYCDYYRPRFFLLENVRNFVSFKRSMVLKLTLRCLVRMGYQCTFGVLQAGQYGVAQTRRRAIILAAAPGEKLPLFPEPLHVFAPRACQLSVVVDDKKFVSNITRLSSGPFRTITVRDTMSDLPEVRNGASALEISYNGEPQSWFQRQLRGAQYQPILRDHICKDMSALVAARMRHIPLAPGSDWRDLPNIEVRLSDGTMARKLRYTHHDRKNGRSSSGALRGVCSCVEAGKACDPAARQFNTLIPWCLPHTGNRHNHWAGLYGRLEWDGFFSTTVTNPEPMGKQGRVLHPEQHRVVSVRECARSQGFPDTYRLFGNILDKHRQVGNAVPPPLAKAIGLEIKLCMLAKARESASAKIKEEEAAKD

With `C/C=C(/C=O)[C@@H](CC=O)CC(=O)OCCc1ccc(O)c(O)c1` [DOA, decarboxymethyl oleuropein aglycone], the IC50 was determined as 11.5 µM against DNMT1, 2.6 µM at mTOR, 5.2 µM at DNMT3B and 5.7 µM on DNMT3A.

On to `Nc1ncnc2c1ncn2[C@@H]1O[C@H](CSCC[C@H](N)C(=O)O)[C@@H](O)[C@H]1O` [SAH, S-adenosyl-l-homocysteine, reference compound], for which the IC50 at DNMT3B was found to be 2.8 µM; against DNMT3A, 5.8 µM.
